US20250163057A1, “DCN-1 MODULATING COMPOUNDS AND METHODS OF USE THEREOF” (Cellarity, Inc., priority 2023, published 2025)
Like-named read-outs stand apart in the source and are kept apart here.

Legend:
DCN1 protein = DCN1 protein (Homo sapiens (Human), UniProt Q96GG9); test: Intact Protein MS Analysis with the RapidFire-TOF System (covalent adduct formation); type: binding; conditions: MS Emax; 400 nM DCN1, 3 hours at room temperature
Method in brief: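 Tag-cleaved human DCN1 (400 nM) expressed in E. coli, in 25 mM Tris-HCl, 200 mM NaCl, 1 mM DTT, was incubated with 11 compound concentrations for 3 h at room temperature and quenched with 0.2% formic acid. Intact-protein Q-TOF MS with deconvolution detected the compound adduct mass.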

[1] = target: DCN1 (DCUND1) protein PONY domain (Homo sapiens (Human), UniProt Q96GG9); test: TR-FRET assay, DCN1 binding with FAM-labeled probe
Chain of DCN1 (DCUND1) protein PONY domain (Q96GG9 60-248): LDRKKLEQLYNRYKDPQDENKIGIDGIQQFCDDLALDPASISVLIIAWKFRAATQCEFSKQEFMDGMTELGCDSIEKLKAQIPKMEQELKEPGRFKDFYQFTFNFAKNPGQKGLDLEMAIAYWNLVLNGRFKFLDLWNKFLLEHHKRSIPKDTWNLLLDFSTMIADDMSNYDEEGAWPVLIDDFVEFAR
Method in brief: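 Biotinylated DCN1 PONY domain, labeled with streptavidin-Tb, was competed against a FAM-labeled non-covalent DCN1 inhibitor probe in buffer with TritonX and 200 mM NaCl. Conditions were 5 nM DCN1 with 20 nM FAM-probe, or 0.31 nM DCN1 with 100 nM FAM-plus 800 nM unlabeled probe. The TR-FRET ratio was read at 1, 5 and 24 h (0.1% DMSO).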

fetal hemoglobin protein = test: HbF HPLC Cell Culture Assay; type: cell-based; conditions: for EC50: 336 h, HbF induction, Day 14 of culture; for Hemoglobin HPLC Ymax obs (%): relative to a control compound
Experimental: A Cell Culture Assay was performed to evaluate the ability of compounds to induce fetal hemoglobin in a cell culture. The amount fetal hemoglobin protein induced was measured by HPLC.
Cell culture began on Day −4 (thaw day). Thaw buffer was prepared by sterile filtering 6 mL of Human Serum Albumin and 144 mL of PBS to make sterile 1% I/PBS. Cells were removed from liquid nitrogen storage and mostly thawed in a 37° C. water bath. Once the ice in the cryovials was melted, cells were transferred quickly into a 50 mL conical tube. Cryovial was rinsed once with thaw buffer and buffer was transferred over to the conical tube as well. Next, doubling volumes of thaw buffer was added to the conical and gently swirled for ˜30 seconds to one minute (for example: 2 mL was added and swirled, then 4 mL, then 8 mL, and so on) until the volume in the conical is 32 mL. Cells and buffer were centrifuged at 300G for 8 minutes, and the supernatant was aspirated. Another 32 mL of thaw buffer was added slowly, swirling the tube. The tube was again centrifuged at 300G for 8 minutes and the supernatant was aspirated. Cells were counted by resuspending in 1 mL of expansion media and counting with AOPI to determine the concentration of cells/mL.
On day 2, Passage & Treatment Day, each cell culture well was counted. Next fresh CD34 Expansion Media was made which contained StemSpan SFEM, CC100 and TPO all from StemCell technologies. Appropriate volume of cells was collected, centrifuged at 300 g and resuspended in fresh media. Cells were plated in treatment format at a density of 200,000 cells/ml, 25,000 cells/well. Finally, they were treated with test compounds as well as positive and negative controls.
On Days 0, 3 & 5 the same process was carried out. First, each cell culture well was counted. Next Phase 1 Erythroid Differentiation Media was freshly made, which contained StemSpan SFEM, 2.5 U/ml EPO, 0.5 mg/ml Holo-TF, 1× Glutamax, 5 μl/ml chemically defined lipid mixture, 10 ng/ml insulin, 50 ng/ml SCF, 10 ng/ml IL-3. Appropriate volume of cells was collected, centrifuged at 300 g and resuspended in fresh media. Cells should now be in fresh wells at a density of 100,000 cells/ml. 60,000 cells, 60,000 cells and 100,000 cells for days 0, 3, 5 respectively. Finally, fresh compound was added to each well at each timepoint (Days 0, 3 & 5).
On Day 7 media and cell culture density changes. Each cell culture well was counted. Next, Phase 2 Erythroid Differentiation Media was freshly made, which contains StemSpan SFEM, 2.5 U/ml EPO, 0.5 mg/ml Holo-TF, 1× Glutamax, 5 μl/ml chemically defined lipid mixture, 10 ng/ml insulin, 50 ng/ml SCF. Appropriate volume of cells was collected, centrifuged at 300 g and resuspended in fresh media. Cells were plated in fresh wells at a density of 500,000 cells/ml, 300,000 cells/well. Finally, fresh compound was added to each well at Day 7 timepoint.
On Day 10 media formulation is once again changed. Each cell culture well was counted. Fresh Phase 3 Erythroid Differentiation Media was made which contains StemSpan SFEM, 2.5 U/ml EPO, 0.5 mg/ml Holo-TF, 1× Glutamax, 5 μl/ml chemically defined lipid mixture, 10 ng/ml insulin. Appropriate volume of cells was collected, centrifuged at 300 g and resuspended in fresh media. Cells were plated in fresh wells at a density of 500,000 cells/ml, 500,000 cells/well. Finally, fresh compound was added to each well at Day 10 timepoint.
On Day 12 the cell density is once again changed. Each cell culture well was counted. Fresh Phase 3 Erythroid Differentiation Media was made. Appropriate volume of cells was collected, centrifuged at 300 g and resuspended in fresh media. Cells were plated in fresh wells at a density of 1,000,000 cells/ml, 1,000,000 cells/well. Finally fresh compound was added to each well.
Day 14 (18th day of experiment) refers to the terminal day of culture. Each cell culture well was counted. Next between 150K and 650K cells were placed in a uniquely labeled 1.5 ml standard tube. […]

[2] = 24 hr after treatment with compound, read-out: TR FRET IC50 24 hr
[3] = read-out: TR FRET IC50 1 hr, 1 hr after treatment with compound
[4] = TR FRET IC50 1 hr (nM), 1 hr after treatment with compound

Chain of DCN1 protein (Q96GG9 whole entry): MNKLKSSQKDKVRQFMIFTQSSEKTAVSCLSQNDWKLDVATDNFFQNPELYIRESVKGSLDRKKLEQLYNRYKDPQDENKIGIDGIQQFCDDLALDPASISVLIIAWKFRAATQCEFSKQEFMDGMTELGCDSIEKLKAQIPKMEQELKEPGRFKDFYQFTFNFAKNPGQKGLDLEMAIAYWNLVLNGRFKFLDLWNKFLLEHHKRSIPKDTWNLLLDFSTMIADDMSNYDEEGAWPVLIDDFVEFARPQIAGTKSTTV

SMILES | % Adduct Formation (DCN1 protein) | IC50 [1, 2] [nM] | IC50 [1, 3] [nM] | EC50 (fetal hemoglobin protein) [nM] | Hemoglobin HPLC Ymax obs (%) (fetal hemoglobin protein) | IC50 [1, 4] [nM]
CCN1C(=O)[C@@H](NC(=O)c2cccc(C(F)(F)F)c2)[C@@H](c2ccc(F)cc2)c2c(C(=O)N(C)[C@H](C#N)CCN(C)C)nn(C3CCOCC3)c21 [Compound I-370] | +++ (MS Emax % adduct formation greater than 80.0 and less than or equal to 100.0) | ≤ 200 | ≤ 200 | – | – | –
C=C(CN1CCC1)C(=O)NCc1nn(-c2ccccc2)c2c1[C@H](c1ccc(F)cc1)[C@H](NC(=O)c1cccc(C(F)(F)F)c1)C(=O)N2CC (racemic) [Compound I-49, rac-N-((4R,5R)-3-((2-(azetidin-1-ylmethyl)acrylamido)methyl)-7-ethyl-4-(4-fluorophenyl)-6-oxo-1-phenyl-4,5,6,7-tetrahydro-1H-pyrazolo[3,4-b]pyridin-5-yl)-3-(trifluoromethyl)benzamide] | – | ≤ 200 | – | ≤ 50 | ++ (Hemoglobin HPLC Ymax greater than 65.0 and less than or equal to 100.0) | ≤ 200
CCN1C(=O)[C@@H](NC(=O)c2cccc(C(F)(F)F)c2)[C@@H](C2CC2)c2c(C(=O)N3CS(=O)(=O)C[C@H]3C#N)nn(C3CCOCC3)c21 [Compound I-617] | – | ≤ 200 | ≤ 200 | – | – | –
CCc1cccc(C(=O)N[C@@H]2C(=O)N(CC)c3c(c(C(=O)N4[C@H](C#N)C[C@H]5C[C@H]54)nn3C3CCOCC3)[C@@H]2C2CC2)c1 [Compound I-552, N-((4S,5S)-3-((1R,3S,5R)-3-cyano-2-azabicyclo[3.1.0]hexane-2-carbonyl)-4-cyclopropyl-7-ethyl-6-oxo-1-(tetrahydro-2H-pyran-4-yl)-4,5,6,7-tetrahydro-1H-pyrazolo[3,4-b]pyridin-5-yl)-3-ethylbenzamide] | – | ≤ 200 | ≤ 200 | – | – | –
CCN1C(=O)[C@@H](NC(=O)c2cccc(C(F)(F)F)c2)[C@@H](C2CC2)c2c(C(=O)N3CCNC[C@H]3C#N)nn(-c3ccccc3)c21 [Compound I-383] | +++ (MS Emax % adduct formation greater than 80.0 and less than or equal to 100.0) | ≤ 200 | ≤ 200 | – | – | –
CCN1C(=O)[C@@H](NC(=O)c2cccc(C(F)(F)F)c2)[C@@H](c2ccc(F)cc2)c2c(C(=O)N3CS(=O)(=O)C[C@H]3C#N)nn(C3CCOCC3)c21 (mixture of isomers) [Compound I-661, N-((4S,5S)-3-(4-cyano-1,1-dioxidothiazolidine-3-carbonyl)-7-ethyl-4-(4-fluorophenyl)-6-oxo-1-(tetrahydro-2H-pyran-4-yl)-4,5,6,7-tetrahydro-1H-pyrazolo[3,4-b]pyridin-5-yl)-3-(trifluoromethyl)benzamide] | – | ≤ 200 | ≤ 200 | > 200 | ++ (Hemoglobin HPLC Ymax greater than 65.0 and less than or equal to 100.0) | –
CCN1C(=O)[C@@H](NC(=O)c2cccc(C(F)(F)F)c2)[C@@H](C2CC2)c2c(C(=O)N(C)[C@H](C)C#N)nn(C3CCOCC3)c21 [Compound I-422] | – | ≤ 200 | ≤ 200 | 50 to 200 | ++ (Hemoglobin HPLC Ymax greater than 65.0 and less than or equal to 100.0) | –
CCN1C(=O)[C@@H](NC(=O)c2cccc(C(F)(F)F)c2)[C@@H](C)c2c(C(=O)N3[C@H](C#N)C[C@H]4C[C@H]43)nn(C3CCOCC3)c21 [Compound I-387] | +++ (MS Emax % adduct formation greater than 80.0 and less than or equal to 100.0) | – | – | – | – | –
CCN1C(=O)[C@@H](NC(=O)c2cccc(C(F)(F)F)c2)[C@@H](C2CC2)c2c(C(=O)N3CCS(=O)(=O)C[C@H]3C#N)nn(C3CCOCC3)c21 (mixture of isomers) [Compound I-379] | +++ (MS Emax % adduct formation greater than 80.0 and less than or equal to 100.0) | ≤ 200 | ≤ 200 | – | – | –
CCN1C(=O)[C@@H](NC(=O)c2cccc(C(F)(F)F)c2)[C@@H](C2CC2)c2c(C(=O)N3CCNC[C@H]3C#N)nn(C3CCOCC3)c21 [Compound I-582] | – | ≤ 200 | ≤ 200 | – | – | –
CCN1C(=O)[C@@H](NC(=O)c2cccc(C(F)(F)F)c2)[C@@H](C2CC2)c2c(C(=O)N3CC[C@H](OC)[C@H]3C#N)nn(C3CCOCC3)c21 [Compound I-418] | – | ≤ 200 | ≤ 200 | ≤ 50 | +++ (Hemoglobin HPLC Ymax greater than 100.0) | –
CCN1C(=O)[C@@H](NC(=O)c2cccc(C(F)(F)F)c2)[C@@H](c2ccc(F)cc2)c2c(C(=O)N3CCNC[C@H]3C#N)nn(C3CCOCC3)c21 [Compound I-363, N-((4S,5S)-3-((S)-2-cyanopiperazine-1-carbonyl)-7-ethyl-4-(4-fluorophenyl)-6-oxo-1-(tetrahydro-2H-pyran-4-yl)-4,5,6,7-tetrahydro-1H-pyrazolo[3,4-b]pyridin-5-yl)-3-(trifluoromethyl)benzamide] | +++ (MS Emax % adduct formation greater than 80.0 and less than or equal to 100.0) | ≤ 200 | ≤ 200 | – | – | –
CCN1C(=O)[C@@H](NC(=O)c2cccc(C(F)(F)F)c2)[C@@H](C2CCC2)c2c(C(=O)N3CCC[C@H]3C#N)nn(C3CCOCC3)c21 [Compound I-692] | – | ≤ 200 | – | > 200 | ++ (Hemoglobin HPLC Ymax greater than 65.0 and less than or equal to 100.0) | 200 to 1000
CCN1C(=O)[C@@H](NC(=O)c2cccc(C(F)(F)F)c2)[C@@H](c2ccc(F)cc2)c2c(C(=O)N(C)[C@@H](C#N)CCN(C)C)nn(C3CCOCC3)c21 [Compound I-369] | +++ (MS Emax % adduct formation greater than 80.0 and less than or equal to 100.0) | ≤ 200 | ≤ 200 | – | – | –
C=C(CN1CCC1)C(=O)NCc1nn(-c2ccccc2)c2c1[C@@H](c1ccc(F)cc1)[C@H](NC(=O)c1cccc(C(F)(F)F)c1)C(=O)N2CC [Compound I-139] | – | ≤ 200 | ≤ 200 | ≤ 50 | ++ (Hemoglobin HPLC Ymax greater than 65.0 and less than or equal to 100.0) | –
CCN1C(=O)[C@@H](NC(=O)c2cccc(C(F)(F)F)c2)[C@@H](c2ccc(F)cc2)c2c(C(=O)N3CCC[C@H]3C#N)nn(-c3ccccc3)c21 (mixture of isomers) [Compound I-34] | +++ (MS Emax % adduct formation greater than 80.0 and less than or equal to 100.0) | – | – | – | ++ (Hemoglobin HPLC Ymax greater than 65.0 and less than or equal to 100.0) | –
